{"source": "patent US20060142390A1", "about": "“Treatment for severe melancholic depression” (priority 2004, published 2006)", "key": {"[1]": {"tested_on": "non-responsive patients on standard therapy", "assay": "Earlier trials of 96% pure EPA as add on to standard therapy in non-responsive patients; Bech score over time", "type": "in vivo, human", "set-up": "key to Bech score, Mean: Bech score = sum of 6 HDRS items", "settings": "for Bech score, Mean: Add on therapy", "source_text": "(§1) The primary objective was to examine the effects of 96% pure EPA versus placebo on the Hamilton Depression Rating Scale (HDRS) in patients with a new or recurrent episode of depression. • 1. The Bech Scale (sum of 6 items as specified) was used as the instrument to measure efficacy across all subjects, i.e. the reduction of the Bech Score in the course of the trial, by comparing this change in the active groups with that in the placebo group. The Bech Scale consists of 6 items from the original HDRS: depression, guilt, work/interest, psychomotor retardation, anxiety psychic and general somatic symptoms (loss of energy, tiredness) and has been successfully used in several trials (Bech 2002 Acta Psychiatry Scand vol 106; p 252-264). • 2. For the differentiation of the subgroups of subjects, item 6 (early morning awakening), item 12 (loss of appetite) and item 16 (weight loss) were chosen from the HDRS, to identify subjects suffering from severe melancholic features. These items are also related to the definition of the melancholia specifier according the DSM-IV (American Psychiatric Association: 4th Edition, 2000). This specification was only done once, i.e. at the baseline visit (v1). Patients with a score of 2 in any of these 3 items were regarded as having severe melancholic items and therefore belonging the severe melancholic group, the others were regarded as not belonging to this group. The characteristics could change in the course of treatment, therefore it was important that only the condition at baseline was used for the definition. Results:\nThe following presents the Bech-Score over time in the severe melancholic groups, contrasted with those subjects showing no severe melancholic signs."}, "[2]": {"tested_on": "outpatients with a new episode of depression", "assay": "Study of 96% pure EPA (ethyl ester) as monotherapy versus placebo in depression; Bech Scale and depression sub score of the HDRS", "type": "in vivo, human", "set-up": "key to Bech score, Mean: Bech score = sum of 6 HDRS items; key to Change of Bech score: reduction of Bech score (sum of 6 HDRS items) over trial; key to Depression subscore (item1, item2, item3), Mean / Depression subscore, Mean: sum of HDRS item 1, item 2 and item 3", "settings": "for Bech score, Mean / Depression subscore (item1, item2, item3), Mean / Depression subscore, Mean: EPA any dose; for Depression subscore (item1, item2, item3), Mean: ITT", "procedure": "as §1, with “A study was performed on outpatients with a new episode of depression using 96% pure EPA, as the ethyl ester, as a monotherapy for treatment of depression. The primary” for “The primary”, “definition. Results: An analysis of a less frequently used, but pre-specified sub score, i.e. the depression sub score, which is the sum of item 1 (depression), item 2 (guilt) and item 3 (suicidality), confirmed the findings.” for “definition. Results:”"}}}
{"compound": "CC/C=C\\C/C=C\\C/C=C\\C/C=C\\C/C=C\\CCCC(=O)O", "note": "[EPA, all cis (or all z) 5,8,11,14,17-eicosapentaenoic acid]", "values": [{"measurement": "Bech score, Mean", "setting": "[1]; no severe melancholic signs, Bech l2 (week 2)", "result": 8.3}, {"measurement": "Bech score, Mean", "setting": "[1]; no severe melancholic signs, Bech l4 (week 4)", "result": 7.3}, {"measurement": "Bech score, Mean", "setting": "[1]; no severe melancholic signs, Bech l8 (week 8)", "result": 6.7}, {"measurement": "Bech score, Mean", "setting": "[1]; no severe melancholic signs, Bech l12 (week 12)", "result": 6.7}, {"measurement": "Bech score, Mean", "setting": "[1]; no severe melancholic signs, Bech v1 (baseline)", "result": 9.8}, {"measurement": "Bech score, Mean", "setting": "[1]; with severe melancholic signs, Bech l2 (week 2)", "result": 8.1}, {"measurement": "Bech score, Mean", "setting": "[1]; with severe melancholic signs, Bech l4 (week 4)", "result": 6.8}, {"measurement": "Bech score, Mean", "setting": "[1]; with severe melancholic signs, Bech l8 (week 8)", "result": 5.9}, {"measurement": "Bech score, Mean", "setting": "[1]; with severe melancholic signs, Bech l12 (week 12)", "result": 5.3}, {"measurement": "Bech score, Mean", "setting": "[1]; with severe melancholic signs, Bech v1 (baseline)", "result": 9.0}, {"measurement": "Improvement of Bech score", "setting": "[1]; add on therapy, patients with severe melancholic features, 12 weeks, placebo 2.8 points, p<0.05", "result": 3.7, "unit": "points"}, {"measurement": "Bech score outcome at 12 weeks compared with placebo (ANVOVA, baseline as covariate, last observation carried forward)", "setting": "[1]; add on therapy, patients with severe melancholic signs", "result": "statistically superior"}, {"measurement": "Change of Bech score compared with placebo", "setting": "[2]; ITT group", "result": "no significant difference"}, {"measurement": "Change of Bech score", "setting": "[2]; ITT group, all subjects, placebo changed by 3.9 points", "result": 4.0, "unit": "points"}, {"measurement": "Bech score, Mean", "setting": "[2]; ITT group, Bech l2, after 2 weeks, last observation carried forward", "result": 8.1}, {"measurement": "Bech score, Mean", "setting": "[2]; ITT group, Bech l4, after 4 weeks, last observation carried forward", "result": 6.6}, {"measurement": "Bech score, Mean", "setting": "[2]; ITT group, Bech l6, after 6 weeks, last observation carried forward", "result": 6.3}, {"measurement": "Bech score, Mean", "setting": "[2]; ITT group, Bech v1 = baseline week 1", "result": 10.3}, {"measurement": "Depression subscore (item1, item2, item3), Mean", "setting": "[2]; baseline", "result": 4.3}, {"measurement": "Depression subscore (item1, item2, item3), Mean", "setting": "[2]; outcome, LOCF", "result": 2.3}, {"measurement": "Bech score, Mean", "setting": "[2]; No severe melancholic signs, Bech l2 (week 2)", "result": 8.8}, {"measurement": "Bech score, Mean", "setting": "[2]; No severe melancholic signs, Bech l4 (week 4)", "result": 6.3}, {"measurement": "Bech score, Mean", "setting": "[2]; No severe melancholic signs, Bech l6 (week 6)", "result": 6.1}, {"measurement": "Bech score, Mean", "setting": "[2]; No severe melancholic signs, Bech v1 (baseline)", "result": 10.2}, {"measurement": "Depression subscore, Mean", "setting": "[2]; No severe melancholic signs, baseline", "result": 4.4}, {"measurement": "Depression subscore, Mean", "setting": "[2]; No severe melancholic signs, outcome", "result": 2.4}, {"measurement": "Bech score, Mean", "setting": "[2]; With severe melancholic signs, Bech l2 (week 2)", "result": 7.3}, {"measurement": "Bech score, Mean", "setting": "[2]; With severe melancholic signs, Bech l4 (week 4)", "result": 7.0}, {"measurement": "Bech score, Mean", "setting": "[2]; With severe melancholic signs, Bech l6 (week 6)", "result": 6.5}, {"measurement": "Bech score, Mean", "setting": "[2]; With severe melancholic signs, Bech v1 (baseline)", "result": 10.3}, {"measurement": "Depression subscore, Mean", "setting": "[2]; With severe melancholic signs, baseline", "result": 4.1}, {"measurement": "Depression subscore, Mean", "setting": "[2]; With severe melancholic signs, outcome", "result": 2.3}, {"measurement": "Change of Bech score compared with placebo", "setting": "[2]; non-severe melancholic group", "result": "not significantly different"}, {"measurement": "Change of Bech score", "setting": "[2]; non-severe melancholic group, placebo change 5.0", "result": 4.1}, {"measurement": "Depression sub score outcome compared with placebo (ANVOVA, baseline as covariate)", "setting": "[2]; patients with severe melancholic signs", "result": "significant superiority"}, {"measurement": "Improvement of depression sub score", "setting": "[2]; patients with severe melancholic signs, placebo 0.7 points, p<0.05", "result": 1.8, "unit": "points"}, {"measurement": "Improvement of Bech score", "setting": "[2]; patients with severe melancholic signs, placebo 2.9 points, p<0.05", "result": 3.8, "unit": "points"}]}
